ChEMBL document CHEMBL1136454, “Synthesis and biological activity of N-Acylated ornithine analogues of daptomycin” (Bioorg Med Chem Lett, 2003)
Converted amounts (≈) assume the structure as drawn.

Key:
Type in all cases: functional
[1] = tested on: Staphylococcus aureus; test: Antibacterial activity against methicillin resistant Staphylococcus aureus ATCC 43300 (MRSA)
[2] = tested on: Enterococcus faecium; test: Antibacterial activity against Enterococcus faecium ATCC 6569
[3] = tested on: Enterococcus faecalis; test: Antibacterial activity against Enterococcus faecalis ATCC 49452
[4] = tested on: Staphylococcus aureus; test: Antibacterial activity against methicillin susceptible Staphylococcus aureus ATCC 29213 (MSSA )
[5] = tested on: Mus musculus; test: Antibacterial activity was determined by protection from death of mice infected by methicillin resistant Staphylococcus aureus (MRSA) upon sc administration of compound after 4 hr of post infection; conditions: read-out: PD50

Compound | MIC [1] | MIC [2] | MIC [3] | MIC [4] | ED50 [5]
CCCCCCCCCC(=O)N[C@@H](Cc1c[nH]c2ccccc12)C(=O)N[C@H](CC(N)=O)C(=O)N[C@@H](CC(=O)O)C(=O)N[C@@H]1C(=O)NCC(=O)N[C@@H](CCCNC(=O)c2ccccc2SC)C(=O)N[C@@H](CC(=O)O)C(=O)N[C@H](C)C(=O)N[C@@H](CC(=O)O)C(=O)NCC(=O)N[C@H](CO)C(=O)N[C@@H]([C@H](C)CC(=O)O)C(=O)N[C@@H](CC(=O)c2ccccc2N)C(=O)O[C@@H]1C | 1.56 µg/mL (≈ 0.881 µM) | 6.25 µg/mL (≈ 3.53 µM) | 25 µg/mL (≈ 14.1 µM) | 3.1 µg/mL (≈ 1.75 µM) | –
CCCCCCCCCC(=O)N[C@@H](Cc1c[nH]c2ccccc12)C(=O)N[C@H](CC(N)=O)C(=O)N[C@@H](CCO)C(=O)N[C@@H]1C(=O)NCC(=O)N[C@@H](CCCNC(=O)C(N)Cc2c[nH]c3ccc(F)cc23)C(=O)N[C@@H](CC(=O)O)C(=O)N[C@H](C)C(=O)N[C@@H](CC(=O)O)C(=O)NCC(=O)N[C@H](CO)C(=O)N[C@@H]([C@H](C)CC(=O)O)C(=O)N[C@@H](CC(=O)c2ccccc2N)C(=O)O[C@@H]1C (some centres undefined) | 1.56 µg/mL (≈ 0.861 µM) | 3.1 µg/mL (≈ 1.71 µM) | 1.56 µg/mL (≈ 0.861 µM) | 1.56 µg/mL (≈ 0.861 µM) | –
CCCCCCCCCC(=O)N[C@@H](Cc1c[nH]c2ccccc12)C(=O)N[C@H](CC(N)=O)C(=O)N[C@@H](CC(=O)O)C(=O)N[C@@H]1C(=O)NCC(=O)N[C@@H](CCCNC(=O)C(C)CC(=O)c2ccccc2N)C(=O)N[C@@H](CC(=O)O)C(=O)N[C@H](C)C(=O)N[C@@H](CC(=O)O)C(=O)NCC(=O)N[C@H](CO)C(=O)N[C@@H]([C@H](C)CC(=O)O)C(=O)N[C@@H](CC(=O)c2ccccc2N)C(=O)O[C@@H]1C (some centres undefined) | 1.56 µg/mL (≈ 0.862 µM) | 6.25 µg/mL (≈ 3.45 µM) | 12.5 µg/mL (≈ 6.91 µM) | 1.56 µg/mL (≈ 0.862 µM) | –
CCCCCCCCCC(=O)N[C@@H](Cc1c[nH]c2ccccc12)C(=O)N[C@@H](CC(N)=O)C(=O)N[C@@H](CC(=O)O)C(=O)N[C@@H]1C(=O)NCC(=O)N[C@@H](CCCNC(=O)C(N)Cc2c[nH]c3ccccc23)C(=O)N[C@@H](CC(=O)O)C(=O)N[C@H](C)C(=O)N[C@@H](CC(=O)O)C(=O)NCC(=O)N[C@H](CO)C(=O)N[C@@H]([C@H](C)CC(=O)O)C(=O)N[C@@H](CC(=O)c2ccccc2N)C(=O)O[C@@H]1C (some centres undefined) | 1.56 µg/mL (≈ 0.863 µM) | 6.25 µg/mL (≈ 3.46 µM) | 12.5 µg/mL (≈ 6.92 µM) | 1.56 µg/mL (≈ 0.863 µM) | –
CCCCCCCCCC(=O)N[C@@H](Cc1c[nH]c2ccccc12)C(=O)N[C@H](CC(N)=O)C(=O)N[C@@H](CC(=O)O)C(=O)N[C@@H]1C(=O)NCC(=O)N[C@@H](CCCNC(=O)CC(C)(C)C(=O)O)C(=O)N[C@@H](CC(=O)O)C(=O)N[C@H](C)C(=O)N[C@@H](CC(=O)O)C(=O)NCC(=O)N[C@H](CO)C(=O)N[C@@H]([C@H](C)CC(=O)O)C(=O)N[C@@H](CC(=O)c2ccccc2N)C(=O)O[C@@H]1C | 12.5 µg/mL (≈ 7.15 µM) | 50 µg/mL (≈ 28.6 µM) | 50 µg/mL (≈ 28.6 µM) | 12.5 µg/mL (≈ 7.15 µM) | –
CCCCCCCCCC(=O)N[C@@H](Cc1c[nH]c2ccccc12)C(=O)N[C@@H](CC(N)=O)C(=O)N[C@@H](CC(=O)O)C(=O)N[C@@H]1C(=O)NCC(=O)N[C@@H](CCCNC(=O)C(N)Cc2c[nH]c3ccc(OC)cc23)C(=O)N[C@@H](CC(=O)O)C(=O)N[C@H](C)C(=O)N[C@@H](CC(=O)O)C(=O)NCC(=O)N[C@H](CO)C(=O)N[C@@H]([C@H](C)CC(=O)O)C(=O)N[C@@H](CC(=O)c2ccccc2N)C(=O)O[C@@H]1C (some centres undefined) | 1.56 µg/mL (≈ 0.849 µM) | 12.5 µg/mL (≈ 6.8 µM) | 25 µg/mL (≈ 13.6 µM) | 1.56 µg/mL (≈ 0.849 µM) | –
CCCCCCCCCC(=O)N[C@@H](Cc1c[nH]c2ccccc12)C(=O)N[C@H](CC(N)=O)C(=O)N[C@@H](CC(=O)O)C(=O)N[C@@H]1C(=O)NCC(=O)N[C@@H](CCCNC(=O)[C@@H](N)CCCCN)C(=O)N[C@@H](CC(=O)O)C(=O)N[C@H](C)C(=O)N[C@@H](CC(=O)O)C(=O)NCC(=O)N[C@H](CO)C(=O)N[C@@H]([C@H](C)CC(=O)O)C(=O)N[C@@H](CC(=O)c2ccccc2N)C(=O)O[C@@H]1C | 0.78 µg/mL (≈ 0.446 µM) | – | 6.25 µg/mL (≈ 3.57 µM) | 1.56 µg/mL (≈ 0.892 µM) | 1.1 mg/kg
CCCCCCCCCC(=O)N[C@@H](Cc1c[nH]c2ccccc12)C(=O)N[C@H](CC(N)=O)C(=O)N[C@@H](CC(=O)O)C(=O)N[C@@H]1C(=O)NCC(=O)N[C@@H](CCCNC(=O)c2cc(OC)ccc2N)C(=O)N[C@@H](CC(=O)O)C(=O)N[C@H](C)C(=O)N[C@@H](CC(=O)O)C(=O)NCC(=O)N[C@H](CO)C(=O)N[C@@H]([C@H](C)CC(=O)O)C(=O)N[C@@H](CC(=O)c2ccccc2N)C(=O)O[C@@H]1C | – | 10 µg/mL (≈ 5.65 µM) | 10 µg/mL (≈ 5.65 µM) | 2.5 µg/mL (≈ 1.41 µM) | –
CCCCCCCCCC(=O)N[C@@H](Cc1c[nH]c2ccccc12)C(=O)N[C@H](CC(N)=O)C(=O)N[C@@H](CCO)C(=O)N[C@@H]1C(=O)NCC(=O)N[C@@H](CCCNC(=O)c2ccccc2)C(=O)N[C@@H](CC(=O)O)C(=O)N[C@H](C)C(=O)N[C@@H](CC(=O)O)C(=O)NCC(=O)N[C@H](CO)C(=O)N[C@@H]([C@H](C)CC(=O)O)C(=O)N[C@@H](CC(=O)c2ccccc2N)C(=O)O[C@@H]1C | 12.5 µg/mL (≈ 7.31 µM) | 25 µg/mL (≈ 14.6 µM) | 25 µg/mL (≈ 14.6 µM) | 6.25 µg/mL (≈ 3.65 µM) | –
CCCCCCCCCC(=O)N[C@@H](Cc1c[nH]c2ccccc12)C(=O)N[C@H](CC(N)=O)C(=O)N[C@@H](CC(=O)O)C(=O)N[C@@H]1C(=O)NCC(=O)N[C@@H](CCCNC(=O)c2ccccc2I)C(=O)N[C@@H](CC(=O)O)C(=O)N[C@H](C)C(=O)N[C@@H](CC(=O)O)C(=O)NCC(=O)N[C@H](CO)C(=O)N[C@@H]([C@H](C)CC(=O)O)C(=O)N[C@@H](CC(=O)c2ccccc2N)C(=O)O[C@@H]1C | 1.56 µg/mL (≈ 0.843 µM) | 3.1 µg/mL (≈ 1.68 µM) | 12.5 µg/mL (≈ 6.75 µM) | 1.56 µg/mL (≈ 0.843 µM) | –
CCCCCCCCCC(=O)N[C@@H](Cc1c[nH]c2ccccc12)C(=O)N[C@H](CC(N)=O)C(=O)N[C@@H](CC(=O)O)C(=O)N[C@@H]1C(=O)NCC(=O)N[C@@H](CCCNC(=O)c2cccc(C)c2N)C(=O)N[C@@H](CC(=O)O)C(=O)N[C@H](C)C(=O)N[C@@H](CC(=O)O)C(=O)NCC(=O)N[C@H](CO)C(=O)N[C@@H]([C@H](C)CC(=O)O)C(=O)N[C@@H](CC(=O)c2ccccc2N)C(=O)O[C@@H]1C | – | 10 µg/mL (≈ 5.7 µM) | 10 µg/mL (≈ 5.7 µM) | 0.63 µg/mL (≈ 0.359 µM) | –
CCCCCCCCCC(=O)N[C@@H](Cc1c[nH]c2ccccc12)C(=O)N[C@H](CC(N)=O)C(=O)N[C@@H](CCO)C(=O)N[C@@H]1C(=O)NCC(=O)N[C@@H](CCCNC(=O)c2c(N)cccc2F)C(=O)N[C@@H](CC(=O)O)C(=O)N[C@H](C)C(=O)N[C@@H](CC(=O)O)C(=O)NCC(=O)N[C@H](CO)C(=O)N[C@@H]([C@H](C)CC(=O)O)C(=O)N[C@@H](CC(=O)c2ccccc2N)C(=O)O[C@@H]1C | 0.78 µg/mL (≈ 0.447 µM) | 3.1 µg/mL (≈ 1.78 µM) | 3.1 µg/mL (≈ 1.78 µM) | 0.78 µg/mL (≈ 0.447 µM) | –
CCCCCCCCCC(=O)N[C@@H](Cc1c[nH]c2ccccc12)C(=O)N[C@H](CC(N)=O)C(=O)N[C@@H](CC(=O)O)C(=O)N[C@@H]1C(=O)NCC(=O)N[C@@H](CCCNC(=O)c2cc(C(=O)O)ccc2N)C(=O)N[C@@H](CC(=O)O)C(=O)N[C@H](C)C(=O)N[C@@H](CC(=O)O)C(=O)NCC(=O)N[C@H](CO)C(=O)N[C@@H]([C@H](C)CC(=O)O)C(=O)N[C@@H](CC(=O)c2ccccc2N)C(=O)O[C@@H]1C | 3.1 µg/mL (≈ 1.74 µM) | 10 µg/mL (≈ 5.61 µM) | 12.5 µg/mL (≈ 7.01 µM) | 1.25 µg/mL (≈ 0.701 µM) | –
CCCCCCCCCC(=O)N[C@@H](Cc1c[nH]c2ccccc12)C(=O)N[C@H](CC(N)=O)C(=O)N[C@@H](CC(=O)O)C(=O)N[C@@H]1C(=O)NCC(=O)N[C@@H](CCCNC(=O)c2ccccc2OC)C(=O)N[C@@H](CC(=O)O)C(=O)N[C@H](C)C(=O)N[C@@H](CC(=O)O)C(=O)NCC(=O)N[C@H](CO)C(=O)N[C@@H]([C@H](C)CC(=O)O)C(=O)N[C@@H](CC(=O)c2ccccc2N)C(=O)O[C@@H]1C | 3.1 µg/mL (≈ 1.77 µM) | 6.25 µg/mL (≈ 3.56 µM) | 25 µg/mL (≈ 14.2 µM) | 1.25 µg/mL (≈ 0.712 µM) | –
CCCCCCCCCC(=O)N[C@@H](Cc1c[nH]c2ccccc12)C(=O)N[C@H](CC(N)=O)C(=O)N[C@@H](CC(=O)O)C(=O)N[C@@H]1C(=O)NCC(=O)N[C@@H](CCCNC(=O)CCc2c[nH]c3ccccc23)C(=O)N[C@@H](CC(=O)O)C(=O)N[C@H](C)C(=O)N[C@@H](CC(=O)O)C(=O)NCC(=O)N[C@H](CO)C(=O)N[C@@H]([C@H](C)CC(=O)O)C(=O)N[C@@H](CC(=O)c2ccccc2N)C(=O)O[C@@H]1C | 1.56 µg/mL (≈ 0.871 µM) | 12.5 µg/mL (≈ 6.98 µM) | 25 µg/mL (≈ 14 µM) | 1.56 µg/mL (≈ 0.871 µM) | –
CCCCCCCCCC(=O)N[C@@H](Cc1c[nH]c2ccccc12)C(=O)N[C@H](CC(N)=O)C(=O)N[C@@H](CC(=O)O)C(=O)N[C@@H]1C(=O)NCC(=O)N[C@@H](CCCNC(=O)c2cc(O)ccc2N)C(=O)N[C@@H](CC(=O)O)C(=O)N[C@H](C)C(=O)N[C@@H](CC(=O)O)C(=O)NCC(=O)N[C@H](CO)C(=O)N[C@@H]([C@H](C)CC(=O)O)C(=O)N[C@@H](CC(=O)c2ccccc2N)C(=O)O[C@@H]1C | – | 10 µg/mL (≈ 5.7 µM) | 10 µg/mL (≈ 5.7 µM) | 1.25 µg/mL (≈ 0.712 µM) | –
CCCCCCCCCC(=O)N[C@@H](Cc1c[nH]c2ccccc12)C(=O)N[C@H](CC(N)=O)C(=O)N[C@@H](CC(=O)O)C(=O)N[C@@H]1C(=O)NCC(=O)N[C@@H](CCCNC(=O)c2cccc(OC)c2N)C(=O)N[C@@H](CC(=O)O)C(=O)N[C@H](C)C(=O)N[C@@H](CC(=O)O)C(=O)NCC(=O)N[C@H](CO)C(=O)N[C@@H]([C@H](C)CC(=O)O)C(=O)N[C@@H](CC(=O)c2ccccc2N)C(=O)O[C@@H]1C | – | 10 µg/mL (≈ 5.65 µM) | 10 µg/mL (≈ 5.65 µM) | 0.63 µg/mL (≈ 0.356 µM) | –
